Data from patent US11459332B2, “Substituted 2-azabicyclo[3.1.0]hexanes as TRK kinases inhibitors” (FOCHON BIOSCIENCES, LTD., priority 2018, dated 2022).

Experiments:
Type in all cases: cell-based
ETV6-TRKC = molecular target: T1, ETV6-TRKC (Homo sapiens, UniProt Q16288); assay: Engineered Ba/F3 cell proliferation inhibition (MTS), ETV6-TRKC; details: Ba/F3-ETV6-TRKC cells, 72 h
T1 construct: ETV6 (fusion partner, N-terminal part); expressed in transfected cells; the other entry of the earlier key: ETV6 (P41212, Transcription factor ETV6)
Description: (§1) MTS testing kit was purchased from Promega (Madison, Wis., USA). The RPMI-1640, Fetal bovine serum and Penicillin-Streptomycin were purchased from Gibco (San Francisco, Calif., USA). Dimethyl sulfoxide (DMSO) and Puromycin were purchased from Sigma (St. Louis, Mo., USA). Mouse interleukin-3 (IL-3) was purchased from Cell signaling Technology (Boston, Mass., USA).
(§2) To investigate whether a compound is able to inhibit the activity of TRK fusion mutation in cells, a mechanism-based assay using engineered Ba/F3 cell lines stably overexpressing oncogenic rearrangement or gene mutation of TRK (TPM3-TRKA, TPM3-TRKA-G595R, AFAP1-TRKB, ETV6-TRKC and ETV6-TRKC-G623R) were developed. In this assay, inhibition of TRK fusion mutation was detected by the cell proliferation inhibition of engineered Ba/F3 cells. Engineered Ba/F3 cells were cultured in culture flasks to 40-80% confluence in RPMI-1640 supplemented with 10% fetal bovine serum, 2 ug/mL puromycin. Cells were collected and plated onto 96-well plates at desired cell density (Ba/F3-TPM3-TRKA: 3×10^4/mL, Ba/F3-TPM3-TRKA-G595R: 1×10^5/mL, Ba/F3-AFAP1-TRKB: 1×10^5/mL, Ba/F3-ETV6-TRKC: 3×10^4/mL, Ba/F3-ETV6-TRKC-G623R: 3×10^4/mL). Plates were incubated at 37° C., with 5% CO2 for 4 h. Compounds were then added to the plates with the final compound concentrations of 10000, 3333, 1111, […], 123, 41.2, 13.7, 4.6 and 1.5 nM. Plates were incubated at 37° C., with 5% CO2 for 72 h. A mixture of 20 μl MTS/100 μl medium were added to each well and the plates were incubated at 37° C., with 5% CO2 for exactly 2 h. The reaction was stopped by adding 25 μl of 10% SDS per well. The absorbance was measured at 490 nm and 650 nm (reference wavelength). IC50 was calculated using GraphPad Prism 5.0 software.

KM12 cells = KM12 cells proliferation inhibition (MTS), mechanism-based TRK assay; details: Homo sapiens, 72 h
Description: as §1
To investigate whether a compound is able to inhibit the activity of TRK in cells, a mechanism-based assay using KM12 cells was developed. In this assay, inhibition of TRK was detected by the inhibition of KM12 cells proliferation. KM12 cells were cultured in culture flasks to 40-80% confluence in RPMI-1640 plus 10% fetal bovine serum. Cells were collected and plated onto 96-well plates at 1000 cells/well. Plates were incubated at 37° C., with 5% CO2 for 4 h. Compounds were added to the plates, the final compound concentrations were […], 123.5, 41.2, 13.7, 4.6 and 1.5 nM. Place plates at 37° C., with 5% CO2 for KM12 cells 72 h. 20 μl MTS/100 μl medium mixture solution were added to each well and incubate the plates for exactly 2 h. Stop the reaction by adding 25 μl 10% SDS per well. Measure absorbance at 490 nm and 650 nm (reference wavelength). IC50 was calculated using GraphPad Prism 5.0.

TPM3-TRKA = molecular target: T2, TPM3-TRKA (Homo sapiens, UniProt P04629); assay: Engineered Ba/F3 cell proliferation inhibition (MTS), TPM3-TRKA; details: Ba/F3-TPM3-TRKA cells, 72 h
T2 construct: TPM3 (fusion partner, N-terminal part); expressed in transfected cells; the other entry of the earlier key: TPM3 (P06753, Tropomyosin alpha-3 chain)
Description: as §1, §2

TPM3-TRKA-G595R = molecular target: T3, TPM3-TRKA-G595R (Homo sapiens, UniProt P04629, G595R); assay: Engineered Ba/F3 cell proliferation inhibition (MTS), TPM3-TRKA-G595R; details: Ba/F3-TPM3-TRKA-G595R cells, 72 h
T3 construct: TPM3 (fusion partner, N-terminal part); expressed in transfected cells; the other entry of the earlier key: TPM3 (P06753, Tropomyosin alpha-3 chain)
Description: as §1, §2

T3 sequence (P04629 510-796 G595R limits assumed): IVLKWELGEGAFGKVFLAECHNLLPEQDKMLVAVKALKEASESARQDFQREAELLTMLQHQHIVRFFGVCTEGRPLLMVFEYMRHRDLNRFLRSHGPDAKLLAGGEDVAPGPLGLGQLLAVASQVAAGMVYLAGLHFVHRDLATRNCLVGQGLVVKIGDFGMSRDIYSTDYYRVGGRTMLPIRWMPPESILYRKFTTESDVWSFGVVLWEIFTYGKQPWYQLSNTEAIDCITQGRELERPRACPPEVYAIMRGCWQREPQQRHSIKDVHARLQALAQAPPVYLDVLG
T2 sequence (P04629 510-796 limits assumed): as the sequence (P04629 510-796 G595R limits assumed) above, with R86G counted along it
T1 sequence (Q16288 530-825 isoform Q16288-3 limits assumed): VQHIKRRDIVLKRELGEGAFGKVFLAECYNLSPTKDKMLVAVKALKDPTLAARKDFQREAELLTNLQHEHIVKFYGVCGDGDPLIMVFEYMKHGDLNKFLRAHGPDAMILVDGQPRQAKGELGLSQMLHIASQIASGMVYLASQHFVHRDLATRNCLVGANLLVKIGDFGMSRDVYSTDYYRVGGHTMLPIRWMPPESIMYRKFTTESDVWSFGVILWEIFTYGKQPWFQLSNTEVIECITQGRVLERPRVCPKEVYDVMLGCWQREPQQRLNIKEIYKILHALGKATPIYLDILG

Row | SMILES | IC50 (ETV6-TRKC) | IC50 (KM12 cells) | IC50 (TPM3-TRKA) | IC50 (TPM3-TRKA-G595R)
1 | O=C(Nc1cnn2ccc(N3CC[C@H]4C[C@]43c3cc(F)ccc3F)nc12)N1CCC(F)C1 (stereo in doubt) [Example 10, (R)-N-(5-((1R,5S)-1-(2,5-difluorophenyl)-2-azabicyclo[3.1.0]hexan-2-yl)pyrazolo [1,5-a]pyrimidin-3-yl)-3-fluoropyrrolidine-1-carboxamide] | 2 nM | 23 nM |  | 
2 | O=C(Nc1cnn2ccc(N3CC[C@H]4C[C@]43c3cc(F)ccc3Cl)nc12)N1CC[C@H](O)C1 [Example 2, (S)—N-(5-((1R,5S)-1-(2-chloro-5-fluorophenyl)-2-azabicyclo[3.1.0]hexan-2-yl)pyrazolo[1,5-a]pyrimidin-3-yl)-3-hydroxypyrrolidine-1-carboxamide] | 7 nM | 42 nM | 44 nM | 
3 | O=C(Nc1cnn2ccc(N3CC[C@H]4C[C@]43c3cc(F)ccc3Cl)nc12)N1CC[C@@H](O)C1 [Example 3, (R)—N-(5-((1R,5S)-1-(2-chloro-5-fluorophenyl)-2-azabicyclo[3.1.0]hexan-2-yl)pyrazolo[1,5-a]pyrimidin-3-yl)-3-hydroxypyrrolidine-1-carboxamide] | 17 nM | 36 nM | 47 nM | 
4 | O=C(Nc1cnc2ccc(N3CC[C@H]4C[C@]43c3cc(F)ccc3F)nn12)N1CC[C@H](O)C1 [Example 4, (S)—N-(6-((1R,5S)-1-(2,5-difluorophenyl)-2-azabicyclo[3.1.0]hexan-2-yl)imidazo[1,2-b]pyridazin-3-yl)-3-hydroxypyrrolidine-1-carboxamide] | 1 nM | 2 nM | 5 nM | 
5 | CC(C)c1nnc(-c2cnn3ccc(N4CC[C@H]5C[C@]54c4cc(F)ccc4F)nc23)o1 [Example 5, 2-(5-((1R,5S)-1-(2,5-difluorophenyl)-2-azabicyclo[3.1.0]hexan-2-yl)pyrazolo[1,5-a]pyrimidin-3-yl)-5-isopropyl-1,3,4-oxadiazole] |  | 9 nM | 6 nM | 40 nM
6 | O=C(Nc1cnn2ccc(N3CC[C@H]4C[C@]43c3cc(F)ccc3F)nc12)N1CC[C@@H](O)C1 [Example 7, (R)-N-(5-((1R,5S)-1-(2,5-difluorophenyl)-2-azabicyclo[3.1.0]hexan-2-yl)pyrazolo[1,5-a]pyrimidin-3-yl)-3-hydroxypyrrolidine-1-carboxamide] | 3 nM | 20 nM | 3 nM | 
7 | O=C(Nc1cnc2ccc(N3CC[C@H]4C[C@]43c3cc(F)ccc3F)nn12)N1CC[C@@H](O)C1 [Example 8, (R)-N-(6-((1R,5S)-1-(2,5-difluorophenyl)-2-azabicyclo[3.1.0]hexan-2-yl)imidazo[1,2-b]pyridazin-3-yl)-3-hydroxypyrrolidine-1-carboxamide] | 5 nM | 25 nM | 5 nM | 
8 | CO[C@H]1CCN(C(=O)Nc2cnn3ccc(N4CC[C@H]5C[C@]54c4cc(F)ccc4F)nc23)C1 [Example 9, (S)-N-(5-((1R,5S)-1-(2,5-difluorophenyl)-2-azabicyclo[3.1.0]hexan-2-yl)pyrazolo [1,5-a]pyrimidin-3-yl)-3-methoxypyrrolidine-1-carboxamide] | 4 nM | 42 nM |  | 
9 | O=C(Nc1cnn2ccc(N3CC[C@H]4C[C@]43c3cc(F)ccc3F)nc12)N1CC[C@@H](F)C1 [Example 11, (R)-N-(5-((1R,5S)-1-(2,5-difluorophenyl)-2-azabicyclo[3.1.0]hexan-2-yl)pyrazolo [1,5-a]pyrimidin-3-yl)-3-fluoropyrrolidine-l-carboxamide] |  | 53 nM |  | 
10 | O=C(Nc1cnn2ccc(N3CC[C@H]4C[C@]43c3cc(F)ccc3F)nc12)N1CCC(F)(F)C1 [Example 12, N-(5-((1R,5S)-1-(2,5-difluorophenyl)-2-azabicyclo [3.1.0]hexan-2-yl)pyrazolo[1,5-a]pyrimidin-3-yl)-3,3-difluoropyrrolidine-1-carboxamide] | 9 nM | 2 nM |  | 
11 | O=C(Nc1cnn2ccc(N3CC[C@H]4C[C@]43c3cc(F)ccc3F)nc12)c1ccccn1 [Example 15, N-(5-((1R,5S)-1-(2,5-difluorophenyl)-2-azabicyclo [3.1.0]hexan-2-yl)pyrazolo[1,5-a]pyrimidin-3-yl) picolinamide] | 1 nM | 1 nM | 1 nM | 18 nM
12 | Cc1cccc(C(=O)Nc2cnn3ccc(N4CC[C@H]5C[C@]54c4cc(F)ccc4F)nc23)n1 [Example 16, N-(5-((1R,5S)-1-(2,5-difluorophenyl)-2-azabicyclo [3.1.0]hexan-2-yl)pyrazolo[1,5-a]pyrimidin-3-yl)-6-methylpicolinamide] | 1 nM | 1 nM | 1 nM | 5 nM
13 | Cc1cccnc1C(=O)Nc1cnn2ccc(N3CC[C@H]4C[C@]43c3cc(F)ccc3F)nc12 [Example 17, N-(5-((1R,5S)-1-(2,5-difluorophenyl)-2-azabicyclo [3.1.0]hexan-2-yl)pyrazolo[1,5-a]pyrimidin-3-yl)-3-methylpicolinamide] | 1 nM | 1 nM | 2 nM | 
14 | Cc1ccc(C(=O)Nc2cnn3ccc(N4CC[C@H]5C[C@]54c4cc(F)ccc4F)nc23)nc1 [Example 18, N-(5-((1R,5S)-1-(2,5-difluorophenyl)-2-azabicyclo [3.1,0]hexan-2-yl)pyrazolo[1,5-a]pyrimidin-3-yl)-5-methylpicolinamide] | 1 nM | 2 nM | 33 nM | 
15 | O=C(Nc1cnn2ccc(N3CC[C@H]4C[C@]43c3cc(F)ccc3F)nc12)c1ccc(F)cn1 [Example 19, N-(5-((1R,5S)-1-(2,5-difluorophenyl)-2-azabicyclo [3.1.0]hexan-2-yl)pyrazolo[1,5-a]pyrimidin-3-yl)-5-fluoropicolinamide] | 1 nM | 1 nM | 2 nM | 
16 | Cc1cnc(C(=O)Nc2cnn3ccc(N4CC[C@H]5C[C@]54c4cc(F)ccc4F)nc23)nc1 [Example 20, N-(5-((1R,5S)-1-(2,5-difluorophenyl)-2-azabicyclo [3.1.0]hexan-2-yl)pyrazolo[1,5-a]pyrimidin-3-yl)-5-methylpyrimidine-2-carboxamide] | 1 nM | 6 nM | 14 nM | 67 nM
17 | O=C(Nc1cnn2ccc(N3CC[C@H]4C[C@]43c3cc(F)ccc3F)nc12)c1ncc(F)cn1 [Example 21, N-(5-((1R,5S)-1-(2,5-difluorophenyl)-2-azabicyclo [3.1.0]hexan-2-yl)pyrazolo[1,5-a]pyrimidin-3-yl)-5-fluoropyrimidine-2-carboxamide] | 1 nM | 24 nM | 10 nM | 
18 | O=C(Nc1cnn2ccc(N3CC[C@H]4C[C@]43c3cc(F)ccc3F)nc12)c1ccc(Cl)cn1 [Example 24, 5-chloro-N-(5-((1R,5S)-1-(2,5-difluorophenyl)-2-azabicyclo[3.1.0]hexan-2-yl)pyrazolo[1,5-a]pyrimidin-3-yl)picolinamide] | 16 nM | 38 nM |  | 
19 | O=C1c2ccccc2CN1c1cnn2ccc(N3CC[C@H]4C[C@]43c3cc(F)ccc3F)nc12 [Example 28, 2-(5-((1R,5S)-1-(2,5-difluorophenyl)-2-azabicyclo [3.1.0]hexan-2-yl)pyrazolo[1,5-a]pyrimidin-3-yl)isoindolin-1-one] | 2 nM |  | 19 nM | 
